The text below walks through data of US20100113465A1, “7-AZASPIRO[3.5]NONANE-7-CARBOXAMIDE COMPOUNDS” (Pfizer Inc., priority 2008, published 2010).

Assay [1] concerns the target T1, rat FAAH (Rattus norvegicus, UniProt P97612).
T1 construct: made in house; host or cells: E. coli
T1 sequence (P97612 1-579): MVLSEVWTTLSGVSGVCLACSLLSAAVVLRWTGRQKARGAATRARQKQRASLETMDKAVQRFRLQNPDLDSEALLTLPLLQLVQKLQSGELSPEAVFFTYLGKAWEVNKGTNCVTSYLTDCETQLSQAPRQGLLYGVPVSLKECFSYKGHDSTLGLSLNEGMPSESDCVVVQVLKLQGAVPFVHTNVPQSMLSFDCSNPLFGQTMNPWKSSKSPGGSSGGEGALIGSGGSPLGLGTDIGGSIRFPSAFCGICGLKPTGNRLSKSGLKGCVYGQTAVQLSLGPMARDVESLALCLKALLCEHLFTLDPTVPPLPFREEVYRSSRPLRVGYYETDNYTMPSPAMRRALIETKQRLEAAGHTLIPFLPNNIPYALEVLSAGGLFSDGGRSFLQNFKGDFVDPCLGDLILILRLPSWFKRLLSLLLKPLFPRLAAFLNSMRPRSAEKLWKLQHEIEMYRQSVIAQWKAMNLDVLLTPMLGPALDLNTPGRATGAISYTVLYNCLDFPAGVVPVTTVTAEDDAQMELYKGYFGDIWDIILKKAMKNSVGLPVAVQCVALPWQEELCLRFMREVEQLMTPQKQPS
Put plainly: FAAH assay, rat FAAH enzyme inhibition (kinact/Ki). The assay is classed as biochemical. Particulars: oleamide substrate 50 μM, 30° C., read-out: rFAAH kinact/Ki. As for the experimental part: (§1) The FAAH assay was carried out in 384-well clear polystyrene plates (Evergreen Scientific) in a total volume of 50 μl per well in a manner similar to that described by Mileni et al., Proc. Nat. Acad. Sci. 2008, 105, 12820-12824. All percents are by volume. Serial dilutions of compound were initially prepared in 100% DMSO, and then diluted two-fold into HPLC-grade H2O to give 50% DMSO. To each well, was placed the reaction mixture (40 μl) containing 1-4 nM FAAH, 50 mM NaPi, pH 7.4, 3 mM α-ketoglutarate, 0.15 mM NADH, 7.5 U/ml glutamate dehydrogenase, 2 mM ADP, 1 mM EDTA, and 0.1% Triton X-100 (The concentration shown for each component is the final concentration in the assay). To this mixture, was added 5 μl of a compound of Examples 1 to 56 at various concentrations in 50% DMSO (or 5 μl 50% DMSO for controls). This was immediately followed by the addition of 5 μl oleamide (500 μM) dissolved in 75% EtOH/25% DMSO and the reaction mixture was mixed for 1.5 min. The final concentrations of DMSO and EtOH in the assay were each 7.5%. The reactions were incubated at 30° C. and the absorbance at 340 nm was collected over a period of 90 min with readings taken in 30-second intervals using SpectraMax Plus^384 Microplate Spectrophotometer (Molecular Devices, Sunnyvale, Calif.). The human FAAH and rat FAAH used in the assay was prepared as described in the patent application WO 2006/067613 using wild-type E. coli cells transformed in St. Louis, Mo., U.S.A. The purity of the enzyme was greater than 98% based on an analysis by SDS-polyacrylamide gel electrophoresis followed by Coomassie Blue staining.
(§2) Reaction progress curves were corrected for the non-enzymatic oxidation of NADH by subtraction of absorbancies at each time point obtained from control reactions containing no FAAH enzyme. The loss of enzyme activity as a function of time is well-described by the following mathematical equation (1) for a mono-exponential decay: […]
(§3) where At represents the absorbance at time t, A0 represents the absorbance at time zero, and C represents a constant. Observed rates of enzyme inactivation (kobs) were determined from the non-linear reaction progress curves by fitting the corrected absorbancies to an equation for a mono-exponential decay using the third-party Microsoft Excel plug-in, XLfit (IDBS Limited). Secondary plots of kobs vs. inhibitor concentration were prepared from kobs values obtained from progress curves. Second-order rates for enzyme inactivation, expressed as kinact/Ki (M^−1s^−1), were calculated from the slopes from linear regression analysis of the secondary plot of kobs vs. inhibitor concentration as defined in following equation (2), where [I]<<Ki:
(§4) The concentration of substrate in the assay was equal to the Km for oleamide of 50 μM. Therefore, reported kinact/Ki values are obtained by multiplying resulting slopes by a factor of two (i.e. slope=kinact/(Ki*2)).

Assay [2] deals with T2, human FAAH (Homo sapiens, UniProt O00519).
T2 construct: made in house; host or cells: E. coli
T2 sequence (O00519 1-579): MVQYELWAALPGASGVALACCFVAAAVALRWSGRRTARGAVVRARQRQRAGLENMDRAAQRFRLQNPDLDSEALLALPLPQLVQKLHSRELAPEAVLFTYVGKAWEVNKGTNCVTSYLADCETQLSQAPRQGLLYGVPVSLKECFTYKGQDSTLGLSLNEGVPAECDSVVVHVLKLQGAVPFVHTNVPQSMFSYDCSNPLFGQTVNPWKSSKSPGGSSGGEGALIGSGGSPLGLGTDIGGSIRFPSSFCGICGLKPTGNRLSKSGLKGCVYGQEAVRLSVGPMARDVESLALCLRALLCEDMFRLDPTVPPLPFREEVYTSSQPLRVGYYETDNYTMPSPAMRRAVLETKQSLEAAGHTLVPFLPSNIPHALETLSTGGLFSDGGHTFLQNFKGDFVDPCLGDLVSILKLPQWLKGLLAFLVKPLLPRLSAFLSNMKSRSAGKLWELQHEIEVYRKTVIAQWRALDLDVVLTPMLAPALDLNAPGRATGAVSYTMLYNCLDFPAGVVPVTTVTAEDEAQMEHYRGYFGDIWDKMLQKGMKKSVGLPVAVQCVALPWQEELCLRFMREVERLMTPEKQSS
Nature of the assay: FAAH assay, human FAAH enzyme inhibition (kinact/Ki). Format: biochemical. Particulars: oleamide substrate 50 μM, 30° C., read-out: hFAAH kinact/Ki. As to the method:
as §1, §2, §3, §4

Assay [3] relates to Male Sprague-Dawley Rats. Nature of the assay: In vivo Complete Freund's Adjuvant (CFA) efficacy assay. Further details: species or system rat; key: (+) indicates the test compound was determined to be efficacious at 3 mpk, oral dosing; (−) indicates the test compound was determined to not be efficacious at 3 mpk, oral dosing. Conditions: 3 mpk, oral dosing; inhibition of allodynia (PWT) four hours postdose vs vehicle, p<0.05. As to the method:
For additional information on the CFA efficacy assay, see Jayamanne et al., Brit. J. Pharmacol. 2006, 147, 281-288. Experiments were performed on adult Male Sprague-Dawley Rats (200 g-250 g). Inflammation was induced in the left hindpaw of the rat by an intra-plantar injection of 150 uL Complete Freund's Adjuvant (CFA) (SIGMA F5881). The CFA injection immediately induces local inflammation, paw swelling, and pain that persists for at least two weeks post-injection. Baseline paw withdrawal threshold (PWT) was measured to determine the percent inhibition of allodynia using a set of Von Frey Hairs on day 4 post injection as illustrated by the Dixon Up and Down Method (W. J. Dixon, Ann. Rev. Pharmacol. Toxicol. 1980, 20:441-462). […] Test compound was administered at a concentration of 3 mg/kg (mpk) orally with the dosing vehicle 5% N,N′-Dimethylacetamide (SIGMA D137510) and 95% (40% 2-hydroxypropyl-beta-cyclodextrin in water) (SIGMA H107). Following Dose administration PWT threshold was evaluated again at four hours postdose. The Sprague-Dawley rats used in this assay were purchased from Harlan, 8520 Allison Pointe Blvd., Indianapolis, Ind., 46250, U.S.A. Sprague-Dawley rats are an outbred breed of albino rats first produced by the Sprague Dawley farms in Madison, Wis., U.S.A.
Percent Inhibition of Allodynia was determined by the formula: […]
ΔPWT measurements were averaged for each treatment group and statistical comparisons between groups were made using ANOVA and Dunnett's two-tailed test. […]

As for `Cc1noc(NC(=O)N2CCC3(CC2)CC(c2cccc(OC(F)(F)F)c2)C3)c1C` [Example 4, N-(3,4-dimethylisoxazol-5-yl)-2-[3-(trifluoromethoxy)phenyl]-7-azaspiro[3.5]nonane-7-carboxamide], the kinact/KI amounted to 3860 M⁻¹ s⁻¹ in assay [1] and 2830 M⁻¹ s⁻¹ in assay [2]. The “CFA Efficacy” value in assay [3] is on record as “(+)”.

As to `Cc1cc(C2CC3(CCN(C(=O)Nc4onc(C)c4C)CC3)C2)ccc1F` [Example 12, N-(3,4-dimethylisoxazol-5-yl)-2-(4-fluoro-3-methylphenyl)-7-azaspiro[3.5]nonane-7-carboxamide], the values for the kinact/KI in assay [1] and in assay [2] were 2990 M⁻¹ s⁻¹ and 3950 M⁻¹ s⁻¹, respectively. In addition, in assay [3], the “CFA Efficacy” value is on record as “(+)”.

For the molecule `Cc1noc(NC(=O)N2CCC3(CC2)CC(c2cccc(Cl)c2)C3)c1C` [Example 13, 2-(3-chlorophenyl)-N-(3,4-dimethylisoxazol-5-yl)-7-azaspiro[3.5]nonane-7-carboxamide], the kinact/KI in assay [1] came to 3560 M⁻¹ s⁻¹; in assay [2] it was 3940 M⁻¹ s⁻¹. The “CFA Efficacy” value in assay [3] is given as “(+)”.

Regarding `Cc1noc(NC(=O)N2CCC3(CC2)CC(c2ccc(F)c(Cl)c2)C3)c1C` [Example 14, 2-(3-chloro-4-fluorophenyl)-N-(3,4-dimethylisoxazol-5-yl)-7-azaspiro[3.5]nonane-7-carboxamide], the kinact/KI in assay [1] amounted to 5820 M⁻¹ s⁻¹; in assay [2] it was 4190 M⁻¹ s⁻¹. The “CFA Efficacy” value in assay [3] is recorded as “(+)”.

For the molecule `Cc1noc(NC(=O)N2CCC3(CC2)CC(c2ccc(Cl)c(F)c2)C3)c1C` [Example 39, 2-(4-chloro-3-fluorophenyl)-N-(3,4-dimethylisoxazol-5-yl)-7-azaspiro[3.5]nonane-7-carboxamide], the figures for the kinact/KI in assay [1] and in assay [2] were 4120 M⁻¹ s⁻¹ and 2670 M⁻¹ s⁻¹, respectively.

Take `Cc1noc(NC(=O)N2CCC3(CC2)CC(c2ccc(OCc4ccc(F)cc4)cc2)C3)c1C` [Example 40, N-(3,4-dimethylisoxazol-5-yl)-2-{4-[(4-fluorobenzyl)oxy]phenyl}-7-azaspiro[3.5]nonane-7-carboxamide]: the results for the kinact/KI in assay [1] and in assay [2] were 1540 M⁻¹ s⁻¹ and 3050 M⁻¹ s⁻¹, respectively.

For `Cc1noc(NC(=O)N2CCC3(CC2)CC(c2ccc(F)c(Cl)c2)C3C)c1C` (centres unmarked) [Example 41, 2-(3-chloro-4-fluorophenyl)-N-(3,4-dimethylisoxazol-5-yl)-1-methyl-7-azaspiro[3.5]nonane-7-carboxamide], the kinact/KI was found to be 405 M⁻¹ s⁻¹ in assay [1] and 354 M⁻¹ s⁻¹ in assay [2].

As to `Cc1noc(NC(=O)N2CCC3(CC(c4ccc(F)c(Cl)c4)C3)C(C)C2)c1C` (centres unmarked) [Example 42, 2-(3-chloro-4-fluorophenyl)-N-(3,4-dimethylisoxazol-5-yl)-5-methyl-7-azaspiro[3.5]nonane-7-carboxamide], the kinact/KI in assay [1] was 1360 M⁻¹ s⁻¹; in assay [2], 991 M⁻¹ s⁻¹.

As to `COC1(c2ccc(F)c(Cl)c2)CC2(CCN(C(=O)Nc3onc(C)c3C)CC2)C1` [Example 43, 2-(3-chloro-4-fluorophenyl)-N-(3,4-dimethylisoxazol-5-yl)-2-methoxy-7-azaspiro[3.5]nonane-7-carboxamide], the kinact/KI was found to be 247 M⁻¹ s⁻¹ in assay [1] and 494 M⁻¹ s⁻¹ in assay [2].

For `Cc1noc(NC(=O)N2CCC3(CC2)CC(O)(c2ccc(F)c(Cl)c2)C3)c1C` [Example 44, 2-(3-chloro-4-fluorophenyl)-N-(3,4-dimethylisoxazol-5-yl)-2-hydroxy-7-azaspiro[3.5]nonane-7-carboxamide], the kinact/KI in assay [1] turned out to be 1340 M⁻¹ s⁻¹; in assay [2], 945 M⁻¹ s⁻¹.

Consider `O=C(Nc1nnc(-c2cccc(Cl)c2)o1)N1CCC2(CC1)CC(c1cccc(OC(F)(F)F)c1)C2` [Example 51, N-[5-(3-chlorophenyl)-1,3,4-oxadiazol-2-yl]-2-[3-(trifluoromethoxy)phenyl]-7-azaspiro[3.5]nonane-7-carboxamide], for which the kinact/KI was determined as 5460 M⁻¹ s⁻¹ in assay [1] and 2520 M⁻¹ s⁻¹ in assay [2].

For `CCn1nnnc1NC(=O)N1CCC2(CC1)CC(c1cccc(OC(F)(F)F)c1)C2` [Example 52, N-(1-ethyl-1H-tetrazol-5-yl)-2-[3-(trifluoromethoxy)phenyl]-7-azaspiro[3.5]nonane-7-carboxamide], the values for the kinact/KI in assay [1] and in assay [2] were 3420 M⁻¹ s⁻¹ and 6940 M⁻¹ s⁻¹, respectively.

Turning to `Cn1nnnc1NC(=O)N1CCC2(CC1)CC(c1cccc3c1OC(F)(F)O3)C2` [Example 55, 2-(2,2-difluoro-1,3-benzodioxol-4-yl)-N-(1-methyl-1H-tetrazol-5-yl)-7-azaspiro[3.5]nonane-7-carboxamide], the figures for the kinact/KI in assay [1] and in assay [2] were 2040 M⁻¹ s⁻¹ and 10200 M⁻¹ s⁻¹, respectively.

In the case of `Cn1nnnc1NC(=O)N1CCC2(CC1)CC(c1cccc(F)c1F)C2` [Example 56, 2-(2,3-difluorophenyl)-N-(1-methyl-1H-tetrazol-5-yl)-7-azaspiro[3.5]nonane-7-carboxamide], the kinact/KI in assay [1] was found to be 1940 M⁻¹ s⁻¹; in assay [2], 10300 M⁻¹ s⁻¹.
